Key:
IL-6 = assay: Ex vivo serum IL-6 quantification; format: in vivo, rat
Procedure: (§1) At the end of the study, animals fasted for 12 h and were taken to a humane endpoint, where blood samples were obtained. These were kept at room temperature for 30 min and then centrifuged at 4000 RPM for 15 min at 4 °C. Finally, the serum was used to perform 24-element blood chemistry and quantify Trolox-equivalent TAC [86], TNF-α [87], and IL-6 levels using commercial kits from Merck (Darmstadt, Germany), Sigma-Aldrich (St. Louis, MO, USA), Cat. No. MAK334-1KT, RAB0479-1KT, and RAB0311-1KT, respectively. In addition, insulin was quantified using the Rat Ins1/Insulin ELISA Kit, from Sigma-Aldrich, No. Cat. RAB0904-1KT [89] to determine the HOMA-IR index. All kits were performed according to the manufacturer’s instructions without modifications.

[1] = test system: STZ-HFD-induced T2D Wistar rats; assay: 24-element blood chemistry in STZ-HFD-induced T2D model; format: in vivo, rat; parameters: GGT / TBA / AMY / TG / T-CHOL / GLU: unit not given here; details: for ALP / ALT / AST / CK: in U/L (unit assumed); for ALB / GLO / TP: in g/dL (unit assumed); for BUN / CRE / Ca / Mg / P / TBIL / UREA: in mg/dL (unit assumed); for tCO2: in mmol/L (unit assumed); for TP: mean ± SEM, n = 4
Procedure: (§2) Treatments were administered daily as described above, adjusting the dose according to the weight of the individuals. Fasting glucose levels (6 h fast) were monitored every 7 days until the end of treatments at week 10 (Figure 14). Halfway through the last week of treatment, the OGTT was performed, administering a dose of 1.5 g/Kg of glucose orally and subsequently monitoring capillary blood glucose at 0, 15, 30, 60, 90, and 120 min [62]. In addition, a 24-element blood chemistry was measured in a Celercare V automated dry chemistry analyzer (Tianjin MNCHIP Technologies Co., Ltd., Tianjin, China) at the beginning and end of the model. For this purpose, the blood samples were obtained from the tail of the rat.
as §1

ALR2 enzyme = target: T1, ALR2 enzyme (Homo sapiens, UniProt P15121); assay: ALR2 activity assay kit (ab273276), inhibition; format: biochemical; details: Inhibitor concentration;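 also: inhibition calculated from the rate of NADPH cofactor consumption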
T1 construct: purchased ab273276

TNF-α = assay: Ex vivo serum TNF-α quantification; format: in vivo, rat
Procedure: as §1

[2] = test system: STZ-HFD-induced T2D Wistar rats; assay: Subchronic evaluation in STZ-HFD-induced T2D model; format: in vivo, rat; parameters: HbA1c: unit not given here
Procedure: In vivo experiments were conducted in an acute and a subchronic model, where Wistar rats (180–220 g) were used. The study covered a total period of 10 weeks and was carried out under the Mexican Standard, and the “Guide for the Care and Use of Laboratory Animals” of the National Research Council and Health Institutes was followed.
At first, animals were housed in polypropylene cages under conditions of controlled temperature (20–25 °C), relative humidity (36–60%), and light/dark cycles, with water ad libitum. Before starting the experiment, they were given a one-week acclimatization period to adapt to their new habitat. Once finalized, animals were fed an HFD for 3 weeks to generate insulin resistance.
After this period, the animals fasted for 12 h and then were administered intraperitoneally with a single dose of 35 mg/Kg of STZ dissolved in a buffer of 0.1 M citrate, pH 4.5 (prepared on the same day of administration). Once administered, the hypercaloric diet was maintained, and 10% sucrose solution was placed on demand for 2 days.
One week after administration, postprandial blood glucose levels were measured by venipuncture using a glucometer. Those animals that maintained a glucose level between 200 and 400 mg/dL were included in the study.
as §2, §1

[3] = Table S11, After 5 weeks of treatment
[4] = serum, end of treatment, mean ± SEM, n = 4
[5] = after the induction of T2D, before treatment

COC(=O)[C@H](Cc1ccccc1)N/C(=N\c1nc2ccccc2s1)SC [8d, Methyl (E)-((benzo[d]thiazol-2-ylimino)(methylthio)methyl)-L-phenylalaninate]
effect on IL-6 and TNF-α levels (IL-6; IL-6 and TNF-α together): highest levels of both cytokines
IL-6 (IL-6; [3]): 887.53 ± 243.91 pg/mL
IL-6 (IL-6; [4]): 887.53 ± 243.91 pg/mL
triglycerides (TG) ([1]; After 5 weeks of treatment): significantly reducing TG
A/G ([1]; Final): 1.28 ± 0.03
AMY ([1]; Final): 436.50 ± 29.54
AST/ALT ([1]; Final): 4.42 ± 0.79
BUN/CRE ([1]; Final): 28.50 ± 6.00
GGT ([1]; Final): 0.65 ± 0.18
GLU ([1]; Final): 172.75 ± 50.56
T-CHOL ([1]; Final): 90.00 ± 16.06
TBA ([1]; Final): 54.33 ± 31.99
TG ([1]; Final): 177.90 ± 82.61
ALP ([1]; Final): 210.25 ± 109.57
ALT ([1]; Final): 85.50 ± 27.46
AST ([1]; Final): 319.75 ± 51.70
CK ([1]; Final): > 3000
ALB ([1]; Final): 4.00 ± 0.16
GLO ([1]; Final): 3.13 ± 0.13
BUN ([1]; Final): 17.78 ± 4.29
CRE ([1]; Final): 0.62 ± 0.03
Ca ([1]; Final): 9.82 ± 0.48
Mg ([1]; Final): 2.34 ± 0.09
P ([1]; Final): 7.89 ± 0.55
TBIL ([1]; Final): 0.25 ± 0.05
UREA ([1]; Final): 38.10 ± 9.11
tCO2 ([1]; Final): 18.00 ± 0.82
TP ([1]; Final): 7.13 ± 0.28
A/G ([1]; Initial): 1.3 ± 0.11
AMY ([1]; Initial): 361.25 ± 6.54
AST/ALT ([1]; Initial): 2.16 ± 0.40
BUN/CRE ([1]; Initial): 21.50 ± 2.60
GGT ([1]; Initial): 1.33 ± 0.38
GLU ([1]; Initial): 188.50 ± 31.74
T-CHOL ([1]; Initial): 105.5 ± 19.94
TBA ([1]; Initial): 79.85 ± 13.64
TG ([1]; Initial): 291.35 ± 160.5
ALP ([1]; Initial): 287.75 ± 31.54
ALT ([1]; Initial): 68.75 ± 11.67
AST ([1]; Initial): 135.75 ± 8.14
CK ([1]; Initial): 641.75 ± 63.37
ALB ([1]; Initial): 3.78 ± 0.08
GLO ([1]; Initial): 2.95 ± 0.22
BUN ([1]; Initial): 11.94 ± 1.46
CRE ([1]; Initial): 0.56 ± 0.00
Ca ([1]; Initial): 9.45 ± 0.16
Mg ([1]; Initial): 2.18 ± 0.07
P ([1]; Initial): 6.83 ± 0.64
TBIL ([1]; Initial): 0.31 ± 0.05
UREA ([1]; Initial): 25.65 ± 3.10
tCO2 ([1]; Initial): 15.25 ± 0.63
TP ([1]; Initial): 6.73 ± 0.20
hepatotoxicity ([1]; subchronic treatment): without inducing hepatotoxicity
relative ALR2 inhibition (ALR2 enzyme): 98.000%
TNF-α (TNF-α; [3]): 5417.72 ± 2104.18 pg/mL
TNF-α (TNF-α; [4]): 5417.72 ± 2104.2 pg/mL
HOMA-IR ([2]; After 5 weeks of treatment): 1.66 ± 0.611
R-QUICKI ([2]; After 5 weeks of treatment): 0.376 ± 0.031
HbA1c ([2]; After 5 weeks of treatment, mean ± SEM, n = 4): 9.267 ± 0.802
HOMA-IR ([2]; Final (end of 5 weeks treatment), PGZ 30 mg/Kg, 8d 32 mg/Kg, mean ± SEM, n = 4): 1.66 ± 0.61
HOMA-IR ([2]; Initial (beginning of treatment), PGZ 30 mg/Kg, 8d 32 mg/Kg, mean ± SEM, n = 4): 4.22 ± 1.58
HOMA-IR [2, 5]: 4.22 ± 1.577
R-QUICKI [2, 5]: 0.318 ± 0.013
HbA1c ([2]; after the induction of T2D, before treatment, mean ± SEM, n = 4): 8.633 ± 0.536
adipogenic effect at necropsy ([2]; after treatment): clear adipogenic effect
polydipsia (water consumption) ([2]; daily oral treatment): decreasing the polydipsia after the first week of treatment
fasting blood glucose, subchronic ([2]; daily oral, 5 weeks): lower blood glucose levels close to the normoglycemia of the healthy group
redistribution of adipose tissue from visceral to subcutaneous fat ([2]; necropsy): barely perceptible
